# Test results reported in ChEMBL document CHEMBL6182894, “Design, synthesis, and biological evaluation of quinolinyl-ureido-phenyl-hydrazide derivatives and quinolinyl-hydrazide derivatives as anticancer agents targeting Nur77-mediated ferroptosis” (Eur J Med Chem, 2025).
# What was measured:
# MCF7 [1] = test: Antiproliferative activity against human MCF7 cells assessed as inhibition of cell growth at 50 uM by MTT assay relative to control; assay type: functional
# [2] = Cytotoxicity in HaCaT cells assessed as inhibition of cell growth by MTT assay; assay type: toxicity, cell-based; conditions: human
# MCF7 [3] = test: cells; conditions: Homo sapiens, MCF7, 24 h
# Description: Antiproliferative activity against human MCF7 cells assessed as inhibition of cell growth incubated for 24 hrs by MTT assay
# HCT-116 = test: Antiproliferative activity against human HCT-116 cells assessed as inhibition of cell growth by MTT assay
# HepG2 = test: Antiproliferative activity against human HepG2 cells assessed as inhibition of cell growth by MTT assay
# [4] = Cytotoxicity in human MCF-10A cells assessed as inhibition of cell growth by MTT assay; assay type: toxicity, cell-based
# MDA-MB-231 = test: cells; conditions: Homo sapiens, MDA-MB-231, 24 h
# Description: Antiproliferative activity against human MDA-MB-231 cells assessed as inhibition of cell growth incubated for 24 hrs by MTT assay
# T47D = test: cells; conditions: Homo sapiens, 24 h
# Description: Antiproliferative activity against human T47D cells assessed as inhibition of cell growth incubated for 24 hrs by MTT assay
# [5] = target: Nuclear receptor subfamily 4immunitygroup A member 1 (Homo sapiens, UniProt P22736); test: Binding affinity to Nur77 LB domain (unknown origin) assessed as dissociation constant up to 100 uM by fluorescence titration assay
# Sequence of Nuclear receptor subfamily 4immunitygroup A member 1 (P22736 whole entry, the tested form may be a part): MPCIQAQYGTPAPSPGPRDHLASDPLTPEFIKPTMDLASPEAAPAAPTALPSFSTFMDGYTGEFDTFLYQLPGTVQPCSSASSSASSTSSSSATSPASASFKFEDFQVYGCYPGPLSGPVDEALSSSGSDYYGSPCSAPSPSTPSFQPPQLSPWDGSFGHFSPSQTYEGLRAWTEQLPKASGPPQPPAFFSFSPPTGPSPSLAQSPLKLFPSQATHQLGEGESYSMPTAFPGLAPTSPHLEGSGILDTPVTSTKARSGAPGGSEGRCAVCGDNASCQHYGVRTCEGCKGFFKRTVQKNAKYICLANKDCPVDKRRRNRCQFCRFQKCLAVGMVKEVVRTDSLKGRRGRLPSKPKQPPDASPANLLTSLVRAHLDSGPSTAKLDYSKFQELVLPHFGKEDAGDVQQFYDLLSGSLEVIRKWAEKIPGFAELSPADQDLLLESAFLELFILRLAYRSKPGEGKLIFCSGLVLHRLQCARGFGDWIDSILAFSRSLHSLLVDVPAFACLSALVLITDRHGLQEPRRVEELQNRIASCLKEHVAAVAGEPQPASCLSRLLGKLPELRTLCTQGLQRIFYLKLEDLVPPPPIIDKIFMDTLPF
Structure (SMILES),inhibition at 50 µM (MCF7 [1]) [%],further results
CCC/C=N/NC(=O)c1ccc(NC(=O)Nc2ccc3ncccc3c2)cc1,46.6,
Cc1cc(C)cc(/C=N/NC(=O)c2ccc(NC(=O)Nc3ccc4ncccc4c3)cc2)c1,19,
COc1ccc(/C=N/NC(=O)c2ccc3ncccc3c2)c(O)c1,71.2,
O=C(Nc1ccc(C(=O)N/N=C/c2ccc(F)cc2F)cc1)Nc1cccc2ncccc12,73.3,
Cc1cc(C)cc(/C=N/NC(=O)c2ccc3ncccc3c2)c1,55.2,
O=C(Nc1ccc(C(=O)N/N=C/c2cccc(Cl)c2)cc1)Nc1cccc2ncccc12,76.2,IC50 [2]: > 50 µM; IC50 (MCF7 [3]): 11.4 µM; IC50 (HCT-116): 10.7 µM; IC50 (HepG2): 15.6 µM; IC50 [4]: > 50 µM
Cc1ccccc1/C=N/NC(=O)c1cccc2ncccc12,65.3,
O=C(Nc1ccc(C(=O)N/N=C/c2ccc(Cl)cc2)cc1)Nc1cccc2ncccc12,53.4,
O=C(N/N=C/c1ccnc2ccccc12)c1ccc2ncccc2c1,55.3,
O=C(N/N=C/c1cccs1)c1cccc2ncccc12,45.7,
COc1ccc(/C=N/NC(=O)c2ccc(NC(=O)Nc3ccc4ncccc4c3)cc2)cc1OC,1.26,
O=C(N/N=C/c1cc(Cl)ccc1Cl)c1ccc2ncccc2c1,64.7,
COc1ccc(/C=N/NC(=O)c2cccc3ncccc23)cc1,67.9,
O=C(N/N=C/c1ccco1)c1cccc2ncccc12,50.9,
O=C(N/N=C/c1cccc(Cl)c1)c1cccc2ncccc12,56.9,
O=C(N/N=C/c1ccccc1)c1cccc2ncccc12,69.3,
Cc1ccc(/C=N/NC(=O)c2ccc3ncccc3c2)cc1,76.8,IC50 [2]: 39.6 µM; IC50 (MCF7 [3]): 22.3 µM; IC50 (HCT-116): 25.3 µM; IC50 (HepG2): 28.1 µM; IC50 [4]: 40.6 µM
O=C(N/N=C/c1ccc(F)cc1)c1ccc2ncccc2c1,60.1,
CC/C(=C(\c1ccccc1)c1ccc(OCCN(C)C)cc1)c1ccccc1 [TAMOXIFEN],,IC50 (MDA-MB-231): 20.8 µM; IC50 (MCF7 [3]): 7.68 µM

Structure (SMILES),inhibition at 50 µM (MCF7 [1]) [%],further results
CCC/C=N/NC(=O)c1ccc2ncccc2c1,65.1,
COc1cc(/C=N/NC(=O)c2ccc(NC(=O)Nc3ccc4ncccc4c3)cc2)cc(OC)c1,56.4,
Cc1cc(C)cc(/C=N/NC(=O)c2cccc3ncccc23)c1,68.5,
O=C(Nc1ccc(C(=O)N/N=C/c2cc(Cl)ccc2Cl)cc1)Nc1ccc2ncccc2c1,75.7,IC50 [2]: 40.1 µM; IC50 (T47D): 8.71 µM; IC50 (MCF7 [3]): 4.77 µM; IC50 (HCT-116): 8.24 µM; IC50 (HepG2): 9.25 µM; IC50 [4]: > 50 µM
Cc1cccc(/C=N/NC(=O)c2ccc(NC(=O)Nc3ccc4ncccc4c3)cc2)c1,68.2,
O=C(N/N=C/c1ccco1)c1ccc2ncccc2c1,41.8,
COc1ccc(/C=N/NC(=O)c2ccc(NC(=O)Nc3ccc4ncccc4c3)cc2)c(O)c1,1.01,
COc1cccc(/C=N/NC(=O)c2ccc(NC(=O)Nc3cccc4ncccc34)cc2)c1,59,
Cc1cccc(/C=N/NC(=O)c2ccc3ncccc3c2)c1,50.1,
Cc1ccc(F)cc1/C=N/NC(=O)c1ccc2ncccc2c1,73.5,
COc1ccc(/C=N/NC(=O)c2ccc(NC(=O)Nc3cccc4ncccc34)cc2)cc1,72.3,
O=C(Nc1ccc(C(=O)N/N=C/c2c[nH]c3ccccc23)cc1)Nc1cccc2ncccc12,30.2,
O=C(O)c1ccc(/C=N/NC(=O)c2ccc3ncccc3c2)cc1,48,
O=C(N/N=C/c1cccs1)c1ccc2ncccc2c1,64.9,
O=C(N/N=C/c1ccc(F)cc1F)c1ccc2ncccc2c1,70.8,
COc1ccc(/C=N/NC(=O)c2ccc(NC(=O)Nc3ccc4ncccc4c3)cc2)cc1,37.7,
COc1ccc(/C=N/NC(=O)c2ccc3ncccc3c2)cc1,66.2,
Cc1ccc(F)cc1/C=N/NC(=O)c1ccc(NC(=O)Nc2cccc3ncccc23)cc1,68.3,
CCC/C=N/NC(=O)c1cccc2ncccc12,79.2,IC50 [2]: 45.7 µM; IC50 (MCF7 [3]): 6.83 µM; IC50 (HCT-116): 2.19 µM; IC50 (HepG2): 2.75 µM; IC50 [4]: 39.5 µM

Structure (SMILES),inhibition at 50 µM (MCF7 [1]) [%],further results
O=C(Nc1ccc(C(=O)N/N=C/c2cc(Cl)nc3ccccc23)cc1)Nc1ccc2ncccc2c1,65.4,
CCCCCCCC(=O)c1c(O)cc(O)cc1CC(=O)OCC [CYTOSPORONE B],,Kd [5]: 15.3 µM
O=C(N/N=C/c1ccc([N+](=O)[O-])cc1)c1ccc2ncccc2c1,63.2,
O=C(Nc1ccc(C(=O)N/N=C/c2ccco2)cc1)Nc1ccc2ncccc2c1,56.2,
O=C(Nc1ccc(C(=O)N/N=C/c2ccc(Cl)cc2)cc1)Nc1ccc2ncccc2c1,66.4,
O=C(N/N=C/c1ccccc1)c1ccc2ncccc2c1,64.9,
O=C(Nc1ccc(C(=O)N/N=C/c2ccc(F)cc2F)cc1)Nc1ccc2ncccc2c1,23.2,
Cc1ccc(/C=N/NC(=O)c2cccc3ncccc23)cc1,60.5,
O=C(Nc1ccc(C(=O)N/N=C/c2cccs2)cc1)Nc1ccc2ncccc2c1,15.1,
CCOc1ccccc1-n1c(C(C)N2CCN(C(=O)COc3ccc(Cl)cc3)CC2)nc2ccccc2c1=O (stereo not given) [ERASTIN],,IC50 (MCF7 [3]): 20.2 µM; IC50 (HCT-116): > 30 µM; IC50 (HepG2): > 30 µM
COc1cccc(/C=N/NC(=O)c2ccc(NC(=O)Nc3ccc4ncccc4c3)cc2)c1,1.99,
O=C(Nc1ccc(C(=O)N/N=C/c2ccnc3ccccc23)cc1)Nc1ccc2ncccc2c1,1.11,
O=C(Nc1ccc(C(=O)N/N=C/c2ccc(Cl)cc2Cl)cc1)Nc1cccc2ncccc12,74.6,
Cc1cccc(/C=N/NC(=O)c2ccc(NC(=O)Nc3cccc4ncccc34)cc2)c1,68.6,
O=C(N/N=C/c1cc(Cl)nc2ccccc12)c1ccc2ncccc2c1,44.1,
CC(C)c1ccc(/C=N/NC(=O)c2ccc(NC(=O)Nc3cccc4ncccc34)cc2)cc1,65.9,
O=C(N/N=C/c1ccc(Cl)cc1)c1ccc2ncccc2c1,79,IC50 [2]: > 50 µM; IC50 (MCF7 [3]): 17.4 µM; IC50 (HCT-116): 22.9 µM; IC50 (HepG2): 13.9 µM; IC50 [4]: > 50 µM
O=C(Nc1ccc(C(=O)N/N=C/c2ccc(Cl)cc2Cl)cc1)Nc1ccc2ncccc2c1,70.2,
